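Growth conditions: 96-well plates. Treatment: test compound, 48 hours, 5 concentrations. Analysis: linear interpolation between bracketing concentrations; unreached endpoints set to highest concentration. GI50 marks 50% less growth. At the TGI there is no net growth.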
Columns and labels:
Assay in all cases: NCI tumour cell line growth inhibition, 48 h
COLO 205 colon = system: COLO 205 colon
HCC-2998 colon = system: HCC-2998 colon
HCT-116 colon = system: HCT-116 colon
HOP-92 NSCLC = system: HOP-92 NSCLC
NCI-H522 lung = system: NCI-H522 lung
SK-MEL-28 melanoma = system: SK-MEL-28 melanoma
SNB-75 CNS = system: SNB-75 CNS
TK-10 renal = system: TK-10 renal
UACC-62 melanoma = system: UACC-62 melanoma
MCF7 breast = system: MCF7 breast

Structure (SMILES)	GI50 (COLO 205 colon) [µM]	TGI (COLO 205 colon) [µM]	GI50 (HCC-2998 colon) [µM]	TGI (HCC-2998 colon) [µM]	GI50 (HCT-116 colon) [µM]	TGI (HCT-116 colon) [µM]	GI50 (HOP-92 NSCLC) [µM]	TGI (HOP-92 NSCLC) [µM]	GI50 (NCI-H522 lung) [µM]	TGI (NCI-H522 lung) [µM]	GI50 (SK-MEL-28 melanoma) [µM]	TGI (SK-MEL-28 melanoma) [µM]	GI50 (SNB-75 CNS) [µM]	TGI (SNB-75 CNS) [µM]	GI50 (TK-10 renal) [µM]	TGI (TK-10 renal) [µM]	GI50 (UACC-62 melanoma) [µM]	TGI (UACC-62 melanoma) [µM]	GI50 (MCF7 breast) [µM]	TGI (MCF7 breast) [µM]
CCC[CH2][Sn]([CH2]CCC)([CH2]CCC)[O]C(=O)C(OC(C)=O)c1ccccc1 (configuration not stated)	0.18	0.321	0.0999	0.216	0.136	0.276	0.0409	0.222	0.144	0.287	0.142	0.274	0.134	0.424	0.244	0.888	0.126	0.255		
O=C1CSC(c2ccc(-c3nc4ccccc4[nH]3)cc2)=N1	> 50	> 50	16.3	> 50	18.6	> 50	> 50	> 50	37.3	> 50					> 50	> 50	12.5	> 50	8.89	> 50
CCCCCCCCCCCC[N+](C)(C)Cc1ccccc1	1.65	3.34			1.33	2.8			1.53	3.95	2.06	4.34	1.45	3.53					2.01	7.7
Cc1ccc(NC(=O)C(=O)C(C(=O)c2ccc3ccccc3c2)C2OC(=O)c3ccccc32)c(C)c1 (configuration not stated)		25.2		21.1		20.1		27.8		31.3		31.2		47.3		42.9		17.3		
COC(NC(N)=O)C(=O)O (configuration not stated)		> 100				> 100		> 100		> 100		> 100		> 100		> 100		> 100		> 100
CCOP(=O)(OCC)/C(C#N)=C\c1ccsc1		> 100		> 100		> 100		> 100		> 100		> 100		> 100		> 100		> 100		
C=C(C)[C@@H]1C/C=C(/CO)CC[C@H]2O[C@]2(C)CC/C=C(\C)CC1	13.2	26.7	19.8	40.4	19.3	38.3			16.1	32.1	14.3	32.1	12.1	31.3	9.74	32.8	15.1	35.6	15.7	31.8
CC(C)=O.O=C([O-])C(F)(F)F.O=C([O-])C(F)(F)F.O=C([O-])C(F)(F)F.O=C([O-])C(F)(F)F.[Rh+2].[Rh+2]	96.1	> 100	> 100	> 100	54	> 100					94.3	> 100	58.6	> 100	81.4	> 100	> 100	> 100		
S=c1nc(C(c2ccccc2)c2ccccc2)[nH][nH]1		> 100		> 100		> 100				> 100		> 100				> 100		> 100		
CC1(C)OC2CC3COC(=O)C3CC2O1 (configuration not stated)		> 100		> 100		> 100		> 100		> 100		> 100		> 100		> 100		> 100		
COc1cc(O)c(C(=O)CC(C)=O)c(OC)c1		> 100		> 100		> 100				> 100		> 100		> 100		> 100		> 100		
CC(C)(CN1CCOCC1)C(=O)/C=C/c1ccc(/C=C/C(=O)C(C)(C)CN2CCOCC2)cc1		3.01		3.26		1.62		6.49		0.928				4.44		3.62		2.98		
Cn1cnc([N+](=O)[O-])c1Sc1nnnn1C		25.3		51.2		28		25.2		20.5		27.3		89.6		31.4		32		
C#CCN(N=O)C(=O)NCCCCC(NC(=O)OCc1ccccc1)C(=O)OCc1ccccc1 (configuration not stated)				> 100		> 100		42.1		30		> 100		> 100		> 100		> 100		
O=C(N/C(=C\c1c(O)ccc2ccccc12)c1nc2ccccc2[nH]1)c1ccccc1		> 100		> 100		> 100		> 100		> 100		> 100		45.6		> 100		> 100		
CSC(=Nc1ccccc1Cl)NC(=O)c1ccc(Br)cc1		> 100		> 100		> 100				> 100		66.3				> 100		> 100		
COc1ccc(C(C#N)=C2C=CC(=NO)C=C2)cc1	15.3	30	16.1	29.7	2.27	5.55			1.23	3.41	28.7	86.7	5.3	18.9	3.87	8.72	8.34	21.9	2.88	13.8
CCN(CCCl)CCCCCNc1c2ccccc2nc2ccc(OC)cc12		3.03		2.94		1.43		3.21		2.03		12.1		3.02		44.3		1.8		
NCCOCn1cc(Cc2cccc(OCc3ccccc3)c2)c(=O)[nH]c1=O		> 100		> 100		> 100		> 100				> 100		> 100		> 100		> 100		
CCN(CC)CCCOc1ccc2ncnc(Nc3ccc(Oc4cccc(C(F)(F)F)c4)c(Cl)c3)c2c1			1.58	3.09			1.23	2.61			1.63	2.99	1.49	2.86	1.14	2.56	1.76	3.22		
